Reference: BindingDB's records for patent US20250059188 (Anaxis Pharma, 2025)

Tests used:
Experiment in all cases: In Vitro Assay
[1] = molecular target: T1, Mixed lineage kinase domain-like protein (Homo sapiens, UniProt Q8NB16)
T1 sequence (Q8NB16 whole entry): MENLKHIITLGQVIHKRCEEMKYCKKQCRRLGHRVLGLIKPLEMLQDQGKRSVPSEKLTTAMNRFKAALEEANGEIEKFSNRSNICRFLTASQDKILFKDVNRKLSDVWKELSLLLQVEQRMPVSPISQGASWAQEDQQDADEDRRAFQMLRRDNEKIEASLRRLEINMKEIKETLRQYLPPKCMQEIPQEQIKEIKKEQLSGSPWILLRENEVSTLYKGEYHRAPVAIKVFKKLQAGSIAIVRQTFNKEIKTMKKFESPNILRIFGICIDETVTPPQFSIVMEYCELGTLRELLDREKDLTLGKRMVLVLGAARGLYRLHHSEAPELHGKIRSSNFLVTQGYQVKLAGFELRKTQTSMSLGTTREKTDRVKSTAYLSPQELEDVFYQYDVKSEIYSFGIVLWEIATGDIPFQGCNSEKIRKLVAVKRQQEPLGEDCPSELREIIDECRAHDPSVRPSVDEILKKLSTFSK
Experimental: (§1) For most assays, kinase-tagged T7 phage strains were grown in parallel in 24-well blocks in an E. coli host derived from the BL21 strain. E. coli were grown to log-phase and infected with T7 phage from a frozen stock (multiplicity of infection=0.4) and incubated with shaking at 32° C. until lysis (90-150 minutes). The lysates were centrifuged (6,000×g) and filtered (0.2 μm) to remove cell debris. The remaining kinases were produced in HEK-293 cells and subsequently tagged with DNA for qPCR detection. […] The liganded beads were blocked with excess biotin and washed with blocking buffer (SeaBlock (Pierce), 1% BSA, 0.05% Tween 20, 1 mM DTT) to remove unbound ligand and to reduce non-specific phage binding. […] All reactions were performed in polypropylene 384-well plates in a final volume of 20 μL. […] The kinase concentration in the eluates was measured by qPCR.

[2] = molecular target: T2, Receptor-interacting serine/threonine-protein kinase 1 (Homo sapiens, UniProt Q13546)
T2 sequence (Q13546 whole entry): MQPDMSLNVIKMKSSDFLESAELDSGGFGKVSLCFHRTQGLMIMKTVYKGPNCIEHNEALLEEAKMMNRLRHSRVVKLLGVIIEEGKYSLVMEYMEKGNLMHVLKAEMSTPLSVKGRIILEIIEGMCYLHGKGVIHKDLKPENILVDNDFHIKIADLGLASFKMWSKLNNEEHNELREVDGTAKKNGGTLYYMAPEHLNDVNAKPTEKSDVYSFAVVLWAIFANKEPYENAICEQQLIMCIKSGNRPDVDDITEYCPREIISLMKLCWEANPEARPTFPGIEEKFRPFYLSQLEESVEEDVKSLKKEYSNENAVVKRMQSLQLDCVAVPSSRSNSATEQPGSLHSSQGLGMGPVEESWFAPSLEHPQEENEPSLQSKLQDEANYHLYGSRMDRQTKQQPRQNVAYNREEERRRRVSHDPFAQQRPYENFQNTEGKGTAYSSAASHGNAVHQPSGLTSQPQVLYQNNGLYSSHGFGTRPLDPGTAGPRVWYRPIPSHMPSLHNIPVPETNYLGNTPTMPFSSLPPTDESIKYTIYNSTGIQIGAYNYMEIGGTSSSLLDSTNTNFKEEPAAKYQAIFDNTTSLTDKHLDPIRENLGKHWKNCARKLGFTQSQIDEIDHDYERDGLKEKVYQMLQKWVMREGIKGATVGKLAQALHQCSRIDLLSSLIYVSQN
Experimental: as §1

[3] = molecular target: Receptor-interacting serine/threonine-protein kinase 3 (Homo sapiens, UniProt Q9Y572)
Experimental: as §1

Sequence of Receptor-interacting serine/threonine-protein kinase 3 (Q9Y572 whole entry): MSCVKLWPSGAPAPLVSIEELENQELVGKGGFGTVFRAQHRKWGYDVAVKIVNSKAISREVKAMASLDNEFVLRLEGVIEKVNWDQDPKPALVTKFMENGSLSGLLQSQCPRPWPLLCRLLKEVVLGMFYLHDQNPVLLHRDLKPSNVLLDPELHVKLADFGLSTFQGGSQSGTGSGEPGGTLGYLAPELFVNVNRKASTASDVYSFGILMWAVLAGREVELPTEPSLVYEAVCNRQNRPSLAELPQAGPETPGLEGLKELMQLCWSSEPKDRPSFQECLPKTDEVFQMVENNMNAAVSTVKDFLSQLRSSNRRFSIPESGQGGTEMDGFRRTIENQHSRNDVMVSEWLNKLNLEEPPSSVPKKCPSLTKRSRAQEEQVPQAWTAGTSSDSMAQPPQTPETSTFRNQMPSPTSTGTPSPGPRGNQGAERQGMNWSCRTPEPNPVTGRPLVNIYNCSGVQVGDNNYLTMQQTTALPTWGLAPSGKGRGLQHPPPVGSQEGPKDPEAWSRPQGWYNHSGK

| SMILES | Kd [1] [µM] | Kd [2] [µM] | Kd [3] [µM] |
| --- | --- | --- | --- |
| Cn1nc(-c2ccc(NS(=O)(=O)C(F)F)c(OCc3ccc(F)cc3)c2)c2c(N)ncc(-c3ccncc3)c21 [US20250059188, Compound 14] | < 0.001 | > 10 | > 10 |
| COc1ccc([C@H](C)Oc2cc(-c3nn(C)c4c(-c5cnn(C6CCOCC6)c5)cnc(N)c34)ccc2NS(=O)(=O)C(F)F)cc1 [US20250059188, Compound 129] | < 0.001 | > 10 | > 10 |
| C[C@H](Oc1cc(-c2nn(C)c3c(-c4cnn(C5CCC(N(C)C)C5)c4)cnc(N)c23)ccc1NS(=O)(=O)C(F)F)c1ccc(F)cc1 (some centres undefined) [US20250059188, Compound 168] | < 0.001 | > 10 | > 10 |
| C[C@H](Oc1cc(-c2nn(C)c3c(-c4cnn(C5CCN(C)C(C(F)F)C5)c4)cnc(N)c23)ccc1NS(=O)(=O)C(F)F)c1ccc(F)cc1 (some centres undefined) [US20250059188, Compound 158] |  | > 10 | > 10 |
| C[C@H](Oc1cc(C2C=NN3C=CN=C(N)C23)ccc1NS(=O)(=O)C(F)F)c1ccc(F)cc1 (some centres undefined) [US20250059188, Compound 22] | < 0.001 | > 10 | > 10 |
